# Measured values reported in patent publication US6340670B1, “Acetal benzylmaltosides as inhibitors of smooth muscle cell proliferation” (American Home Products Corporation, priority 1998, dated 2002).
# Like-named read-outs stand apart in the source and are kept apart here.
# What was measured:
# [1] = tested on: Porcine Smooth Muscle Cell; assay: Effects of Compounds on Cell Proliferation Using 3H Thymidine Incorporation; format: cell-based; conditions: for IC50: serum/growth factor stimulated cells, 24-36 h incubation, read-out: Porcine Smooth Muscle Cell Antiproliferation IC50; for Porcine Smooth Muscle Cell Antiproliferation, percent inhibition: @ 50 μM, control (100%) = maximally stimulated cells
# Summary of the method: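 Early-passage (3-7) sub-confluent smooth muscle cells, serum-starved 24-48 h, were stimulated with growth factor or serum and treated with compound (1 to 100 μM, from 50% ethanol stock) for 24-36 h at 37° C. Proliferation by ^3H-thymidine incorporation into TCA-insoluble material, triplicate, relative to maximally stimulated cells (100%); given as IC50 or % inhibition.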
compound,measurement,setting,value
"O=C(OCC1OC(OCc2ccc(Cl)c([N+](=O)[O-])c2)C(O)C(O)C1OC1OC2COC(c3ccccc3)OC2C(O)C1O)c1cccnc1 (centres unmarked) [Example 32, Nicotinic acid 6-(4-chloro-3-nitro-benzyloxy)-3-(7,8-dihydroxy-2-phenyl-hexahydro-pyrano[3,2-d][1,3]dioxin-6-yloxy)-4,5-dihydroxy-tetrahydro-pyran-2-ylmethyl ester]",IC50,[1]; Sus scrofa,405 nM
same,melting point,,> 105 °C (dec.)
"COc1ccc(C(=O)OCC2OC(OCc3ccc(Cl)c(NC(C)=O)c3)C(O)C(O)C2OC2OC3COC(c4ccccc4)OC3C(O)C2O)cc1 (centres unmarked) [Example 34, 4-Methoxy-benzoic acid 6-(3-acetylamino-4-chloro-benzyloxy)-3-(7,8-dihydroxy-2-phenyl-hexahydro-pyrano[3,2-d][1,3]dioxin-6-yloxy)-4,5-dihydroxy-tetrahydro-pyran-2-ylmethyl ester]",IC50,[1]; Sus scrofa,61 nM
same,melting point,,> 117 °C (dec.)
"COc1ccc(C(=O)OCC2OC(OCc3ccc(Cl)c(NC(C)=O)c3)C(OC(C)=O)C(OC(C)=O)C2OC2OC3COC(c4ccccc4)OC3C(OC(C)=O)C2OC(C)=O)cc1 (centres unmarked) [Example 35, 4-Methoxy-benzoic acid 4,5-diacetoxy-6-(3-acetylamino-4-chloro-benzyloxy)-3-(7,8-diacetoxy-2-phenyl-hexahydro-pyrano[3,2-d][1,3]dioxin-6-yloxy)-tetrahydro-pyran-2-ylmethyl ester]",IC50,[1]; Sus scrofa,851 nM
same,melting point,,> 110 °C (dec.)
"CC(=O)Nc1cc(COC2OC(COC(=O)c3ccc(Cl)cc3)C(OC3OC4COC(c5ccccc5)OC4C(O)C3O)C(O)C2O)ccc1Cl (centres unmarked) [Example 36, 4-Chloro-benzoic acid 6-(3-acetylamino-4-chloro-benzyloxy)-3-(7,8-dihydroxy-2-phenyl-hexahydro-pyrano[3,2-d][1,3]dioxin-6-yloxy)-4,5-dihydroxy-tetrahydro-pyran-2-ylmethyl ester]",IC50,[1]; Sus scrofa,89 nM
same,melting point,,> 113 °C (dec.)
"CC(=O)Nc1cc(COC2OC(COC(=O)c3ccc(Cl)cc3)C(OC3OC4COC(c5ccccc5)OC4C(OC(C)=O)C3OC(C)=O)C(OC(C)=O)C2OC(C)=O)ccc1Cl (centres unmarked) [Example 37, 4-Chloro-benzoic acid 4,5-diacetoxy-6-(3-acetylamino-4-chloro-benzyloxy)-3-(7,8-diacetoxy-2-phenyl-hexahydro-pyrano[3,2-d][1,3]dioxin-6-yloxy)-tetrahydro-pyran-2-ylmethyl ester]",IC50,[1]; Sus scrofa,588 nM
same,melting point,,114 to 115 °C
"CC(=O)Nc1cc(COC2OC(COC(=O)C(c3ccccc3)c3ccccc3)C(OC3OC4COC(c5ccccc5)OC4C(O)C3O)C(O)C2O)ccc1Cl (centres unmarked) [Example 50, Diphenyl-acetic acid 6-(3-acetylamino-4-chloro-benzyloxy)-3-(7,8-dihydroxy-2-phenyl-hexahydro-pyrano[3,2-d][1,3]dioxin-6-yloxy)-4,5-dihydroxy-tetrahydro-pyran-2-ylmethyl ester]",IC50,[1]; Sus scrofa,84 nM
same,melting point,,> 106 °C (dec.)
"CC(=O)Nc1cc(COC2OC(COC(=O)C(c3ccccc3)c3ccccc3)C(OC3OC4COC(c5ccccc5)OC4C(OC(C)=O)C3OC(C)=O)C(OC(C)=O)C2OC(C)=O)ccc1Cl (centres unmarked) [Example 51, Diphenyl-acetic acid 4,5-diacetoxy-6-(3-acetylamino-4-chloro-benzyloxy)-3-(7,8-diacetoxy-2-phenyl-hexahydro-pyrano[3,2-d][1,3]dioxin-6-yloxy)-tetrahydro-pyran-2-ylmethyl ester]",IC50,[1]; Sus scrofa,354 nM
same,melting point,,> 99 °C (dec.)
"O=C(Nc1cc(CO[C@@H]2O[C@H](COC(=O)c3ccccc3I)[C@@H](O[C@H]3O[C@@H]4COC(c5ccccc5)O[C@H]4[C@H](O)[C@H]3O)[C@H](O)[C@H]2O)ccc1Cl)c1ccc(C(=O)c2ccccc2)cc1 (stereo partly drawn) [Example 72, 4-Benzoyl-N-{5-[(4′,6′-O-benzylidene-6-O-(2-iodo)-benzoyl-β-D-maltosyl)-oxy-methyl]-2-chloro-phenyl}-benzamide]",IC50,[1],16 nM
"O=C(Nc1cc(COC2OC(COC(=O)c3cccc(I)c3)C(OC3OC4COC(c5ccccc5)OC4C(O)C3O)C(O)C2O)ccc1Cl)c1ccc(C(=O)c2ccccc2)cc1 [Example 73, 4-Benzoyl-N-{5-[(4′,6′-O-benzylidene-6-O-(3-iodo-benzoyl)-β-D-maltosyl)-oxy-methyl]-2-chloro-phenyl}-benzamide]",IC50,[1],132 nM
"O=C(Nc1cc(COC2OC(COC(=O)c3ccc(I)cc3)C(OC3OC4COC(c5ccccc5)OC4C(O)C3O)C(O)C2O)ccc1Cl)c1ccc(C(=O)c2ccccc2)cc1 [Example 74, 4-Benzoyl-N-{5-[(4′,6′-O-benzylidene-6-(4-iodo-benzoyl)-oxy-β-D-maltosyl)-oxy-methyl]-2-chloro-phenyl}-benzoic acid amide]",IC50,[1],1220 nM
"CC(NC(=O)OCC1c2ccccc2-c2ccccc21)C(=O)Nc1cc(COC2OC(CO)C(OC3OC4COC(c5ccccc5)OC4C(O)C3O)C(O)C2O)ccc1Cl [Example 75, (1-{5-[(4′,6′-O-Benzylidene-β-D-maltosyl)-oxy-methyl]-2-chloro-phenyl-carbamoyl}ethyl)-carbamic acid 9H-fluoren-9ylmethyl ester]",IC50,[1],4690 nM
"CC(NC(=O)OCC1c2ccccc2-c2ccccc21)C(=O)Nc1cc(COC2OC(COC(=O)c3ccccc3)C(OC3OC4COC(c5ccccc5)OC4C(O)C3O)C(O)C2O)ccc1Cl [Example 76, N-(9H-Fluoren-9ylmethoxycarbonyl)-N′-{5-[(6-O-benzoyl-4′,6′-O-benzylidene-β-D-maltosyl)-oxy-methyl]-2-chloro-phenyl}-L-alaninamide]",IC50,[1],156 nM
"C[C@H](N)C(=O)Nc1cc(CO[C@@H]2O[C@H](COC(=O)c3ccccc3)[C@@H](O[C@H]3O[C@@H]4COC(c5ccccc5)O[C@H]4[C@H](O)[C@H]3O)[C@H](O)[C@H]2O)ccc1Cl (stereo partly drawn) [Example 77, N′-{5-[(6-O-benzoyl-4′,6′-O-benzylidene-β-D-maltosyl)-oxy-methyl]-2-chloro-phenyl}-L-alaninamide]",IC50,[1],81 nM
"CC(=O)N(C)c1cc(CO[C@@H]2O[C@H](CO)[C@@H](O[C@H]3O[C@@H]4COC(c5ccccc5)O[C@H]4[C@H](O)[C@H]3O)[C@H](O)[C@H]2O)ccc1Cl (stereo partly drawn) [Example 78, N-{5-[(4′,6′-O-Benzylidene-β-D-maltosyl)-oxymethyl]-2-chloro-phenyl}-N-methyl-acetamide]","Porcine Smooth Muscle Cell Antiproliferation, percent inhibition",[1],8% @ 50
"CC(=O)N(C)c1cc(COC2OC(COC(=O)c3ccccc3)C(OC3OC4COC(c5ccccc5)OC4C(O)C3O)C(O)C2O)ccc1Cl [Example 79, N-{5-[(6-O-Benzoyl-4′,6′-O-benzylidene-β-D-maltosyl)-oxymethyl]-2-chloro-phenyl}-N-methyl-acetamide]",IC50,[1],2360 nM
"COC(=O)Nc1cc(COC2OC(CO)C(OC3OC4COC(c5ccccc5)OC4C(O)C3O)C(O)C2O)ccc1Cl [Example 80, N-{5-[(4′,6′-O-Benzylidene-β-D-maltosyl)-oxy-methyl]-2-chloro-phenyl}-carbamic acid methyl ester]",IC50,[1],7570 nM
"COC(=O)Nc1cc(COC2OC(COC(=O)c3ccccc3)C(OC3OC4COC(c5ccccc5)OC4C(O)C3O)C(O)C2O)ccc1Cl [Example 81, N-{5-[(6-O-Benzoyl-4′,6′-O-benzylidene-β-D-maltosyl)-oxy-methyl]-2-chloro-phenyl}-carbamic acid methyl ester]",IC50,[1],14 nM
"CS(=O)(=O)Nc1cc(COC2OC(CO)C(OC3OC4COC(c5ccccc5)OC4C(O)C3O)C(O)C2O)ccc1Cl [Example 83, N-{5-[(4′,6′-O-Benzylidene-β-D-maltosyl)-oxy-methyl]-2-chloro-phenyl}-methanesulfonamide]","Porcine Smooth Muscle Cell Antiproliferation, percent inhibition",[1],18% @ 50
"CC(=O)Nc1cc(COC2OC(COC(=O)c3ccccc3)C(OC3OC4COC(c5ccccc5)OC4C(O)C3O)C(O)C2O)ccc1C#N [Example 84, N-{5-[(6-O-Benzoyl-4′,6′-O-benzylidene-β-D-maltosyl)-oxy-methyl]-2-cyano-phenyl}-acetamide]",IC50,[1],250 nM
"CC(=O)Nc1cc(COC2OC(COC(=O)c3ccccc3)C(OC3OC4COC(c5ccccc5)OC4C(O)C3O)C(O)C2O)ccc1C [Example 85, N-{5-[(6-O-Benzoyl-4′,6′-O-benzylidene-β-D-maltosyl)-oxy-methyl]-2-methyl-phenyl}-acetamide]",IC50,[1],418 nM
"O=[N+]([O-])c1cc(CSC2OC(CO)C(OC3OC4COC(c5ccccc5)OC4C(O)C3O)C(O)C2O)ccc1Cl (centres unmarked) [Example 86, 6-[-6-(4-Chloro-3-nitro-benzylsulfanyl)-4,5-dihydroxy-2-hydroxymethyl-tetrahydro-pyran-3-yloxy]-2-phenyl-hexahydro-pyrano[3,2-d][1.3]dioxine-7.8-diol]",IC50,[1],16300 nM
"O=C(OCC1OC(SCc2ccc(Cl)c([N+](=O)[O-])c2)C(O)C(O)C1OC1OC2COC(c3ccccc3)OC2C(O)C1O)c1ccccc1 [Example 87, (4-Chloro-3-nitro-benzyl) 6-O-benzoyl-4′,6′-O-benzoyl-4′,6′-O-benzylidene-1-thio-β-D-maltoside]",IC50,[1],31 nM
"Benzoic acid 6-(3-acetylamino-4-chloro-benzoyloxy)-3-(7,8-dihydroxy-2-pyridin-4-yl-hexahydro-pyrano[3,2-d][1,3]dioxin-6-yloxy)-4,5-dihydroxy-tetrahydro-pyran-2-ylmethyl ester [Example 23]",IC50,[1],3 nM
"N-{5-[(6-O-(3-Benzyl-1-oxo-propyl)-4′,6′-O-benzylidene-β-D-maltosyl)-oxy-methyl]-2-chloro-phenyl}-carbamic acid methyl ester [Example 82]",IC50,[1],352 nM
"N-{5-[(6-O-Benzyl-4′,6′-O-ethylidene-β-D-maltosyl)-oxy-methyl]-2-chloro-phenyl}-acetamide [Example 9]",IC50,[1],83 nM
